From paper PMC8524856 (Biochemistry, 2021)

Columns and labels:
HS19.10 = settings: 2.0 mM L-glutamate, 250 μM PLP, 50 mM HEPES/K+, pH 8.0, 25 °C; DHAP varied
[1] = test system: N[C@@H](COP(=O)(O)O)C(=O)O; assay: purified protein; settings: 100 mM HEPES/K+, pH 8.0, 25 °C, 250 μM PLP

Row | Molecule | Km (HS19.10) [µM] | kcat [1] [s⁻¹]
1 | O=C(CO)COP(=O)(O)O [DHAP] | 41 ± 2 | –
2 | Cj1436 (Campylobacter jejuni subsp. jejuni NCTC 11168 = ATCC 700819) | – | 0.21 ± 0.02
